The text below walks through data of paper PMC6712885, “Improved homology modeling of the human & rat EP4 prostanoid receptors” (BMC Molecular and Cell Biology, 2019).

Values joined by “and” are separate entries in the source; they are usually repeats but may differ in a detail not shown here. Equal entries are not always repeated. Where two headings read alike, the source gives them in different places.

For assay [1], the target named is T1, Rat EP4 Receptor (Rattus norvegicus, UniProt P43114).
T1 construct: expressed in transfected cells; host or cells: HEK293T/17
T1 sequence (P43114 whole entry): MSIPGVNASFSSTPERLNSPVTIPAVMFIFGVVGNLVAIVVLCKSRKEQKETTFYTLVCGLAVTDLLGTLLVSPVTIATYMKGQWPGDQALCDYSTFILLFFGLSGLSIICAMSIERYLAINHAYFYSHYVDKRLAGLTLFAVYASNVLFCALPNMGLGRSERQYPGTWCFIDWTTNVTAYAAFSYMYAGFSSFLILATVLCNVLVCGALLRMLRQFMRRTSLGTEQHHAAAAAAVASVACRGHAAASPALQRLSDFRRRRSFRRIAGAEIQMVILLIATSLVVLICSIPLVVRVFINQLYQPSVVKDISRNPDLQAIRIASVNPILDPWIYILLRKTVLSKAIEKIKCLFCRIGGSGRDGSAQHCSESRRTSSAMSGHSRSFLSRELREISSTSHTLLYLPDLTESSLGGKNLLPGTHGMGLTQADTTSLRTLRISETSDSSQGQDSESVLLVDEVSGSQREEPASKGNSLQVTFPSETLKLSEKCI
Details: method as in PMID 29636218. To be noted: reported within cited reference; cited from earlier work.

The target in assay [2] is T2, hEP4 receptor (Homo sapiens, UniProt P35408). Also on record: expressed in transfected cells; host or cells: HEK293T/17. To be noted: reported within cited reference; cited from earlier work.
T2 sequence (P35408 whole entry): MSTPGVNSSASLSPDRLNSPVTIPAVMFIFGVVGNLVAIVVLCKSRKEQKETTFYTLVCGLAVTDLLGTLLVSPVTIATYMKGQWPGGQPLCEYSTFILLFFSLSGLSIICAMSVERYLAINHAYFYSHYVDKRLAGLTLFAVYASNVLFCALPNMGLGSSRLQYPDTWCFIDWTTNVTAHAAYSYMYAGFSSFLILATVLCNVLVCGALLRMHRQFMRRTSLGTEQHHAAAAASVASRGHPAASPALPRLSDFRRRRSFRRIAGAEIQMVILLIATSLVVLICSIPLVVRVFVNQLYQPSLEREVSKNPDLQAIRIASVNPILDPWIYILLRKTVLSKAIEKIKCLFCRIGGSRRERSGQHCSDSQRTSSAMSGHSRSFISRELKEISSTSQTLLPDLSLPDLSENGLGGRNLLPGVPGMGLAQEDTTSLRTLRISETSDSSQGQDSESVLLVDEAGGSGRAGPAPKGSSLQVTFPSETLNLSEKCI
Assay [3] has as its target T1, Rat EP4 Receptor. The assay is described as follows: EP4 receptor functional activation, cAMP ELISA in transfected HEK293T/17 cells. Type of assay: cell-based. As for the experimental part: (§1) Human and rat EP4 receptors were expressed in HEK293T/17 cells separately by reverse transfection on 96-well plates with optimized amounts of cDNA expression constructs immobilized on the surface. Activation of EP4 receptor in this cell line was measured as an increase in cAMP levels using an ELISA kit (Cayman Chemical, Ann Arbor MI). In short, the transfection plates were seeded with 50,000–80,000 cells/well in reduced serum medium containing 0.5% FBS and incubated overnight at 37 °C with 5% CO2. Before stimulation with test compounds, media was aspirated from the wells and replaced with reduced serum media containing 0.5 mM 3-isobutyl 1-methylxanthine (IBMX). Compound dilution series were prepared in the same IBMX containing media at 2X final concentration and applied to the wells in equal volume. Stimulation media were aspirated from the plates after 30 min incubation with test compounds, and the plates with cells were placed on dry ice and then put into − 80 °C freezer for > 2 h. Cell lysates were prepared on thawed plates by adding 200 μl/well ice-cold ELISA buffer with 0.05% Tween-20 followed by titration. The cell lysates were then transferred to a polypropylene plate and clarified by centrifugation at 1000×g for 15 min at 4 °C. Supernatant was transferred into a pre-coated mouse Anti-Rabbit IgG ELISA plate together with serial dilutions of cAMP for a standard curve in triplicate. cAMP-acetylcholinesterase conjugate (cAMP tracer) was added, followed by cAMP EIA antiserum. Plates were incubated overnight with shaking. After washing 5 times in washing buffer, Ellman’s reagent was added to the well and shake for 90 min under cover before measuring absorbance at 405 nm on a plate reader.
(An ELISA detects its analyte on a solid surface through an enzyme-linked reagent.)

The target of assay [4] is T2, hEP4 receptor. The assay is described as follows: Radioligand ([H^3]-PGE2) competition binding, hEP4 membranes of HEK293 cells. Details: expressed in transfected cells; host or cells: HEK293. To be noted: Human EP4 Receptor; displacement of 0.5 nM [H^3]-PGE2, Cheng Prusoff. The procedure:
(§2) Radioligand binding experiments were carried out versus the hEP4 and rEP4 receptors. […] We also implemented the rEP4 receptor binding studies. Equilibrium competition binding assays were conducted to determine the inhibition constants (Ki) for ligand interactions with EP4 receptors sourced from membranes (160,000×g) of HEK293 cells overexpressing recombinant hEP4 or rEP4 receptors. […] Assays were performed in 10 mM 2-(N-morpholino) ethanesulphonic acid (MES) buffer containing 1 mM EDTA and 10 mM MnCl2, pH 6.0, during 120 min at room temperature. Ki was calculated using the Cheng Prusoff equation where Ki = IC50/(1 […] L/Kd).

Assay [5] has as its target T2, hEP4 receptor. The assay is described as follows: cell-based. Also on record: expressed in transfected cells; host or cells: HEK293T/17. Type of assay: cell-based. The procedure:
as §1

The target of the next assay is T3, rEP4 receptor (Rattus norvegicus, UniProt P43114).
T3 construct: expressed in transfected cells; host or cells: HEK293
T3 sequence (P43114 whole entry): as the sequence (P43114 whole entry) above
Description: Radioligand ([H^3]-PGE2) competition binding, rEP4 membranes of HEK293 cells. As for the experimental part: as §2

Assay [6] concerns the target T2, hEP4 receptor. Also on record: expressed in transfected cells; host or cells: HEK293T/17. To be noted: reported within cited reference; cited from earlier work. The source holds these as a separate data set.
[7] abbreviates: Human EP4 Receptor, cAMP response assay, value ± spread (n), read-out: EC50.
The mark [8] stands for this setting: Rat EP4 Receptor, displacement of 0.5 nM [H^3]-PGE2, Cheng Prusoff, read-out: Ki.

What is called Ki is the equilibrium dissociation constant of an inhibitor or competing ligand from its target. `CCCCC(C)(O)C/C=C/[C@H]1[C@H](O)CC(=O)[C@@H]1CCCCCCC(=O)OC` (mixture of isomers) [Misoprostol]: the Ki on Rat EP4 Receptor [1] is 26300 nM; on hEP4 receptor [2] it was 4340 nM.

A word on the EC50: it is the concentration needed to bring the measured effect to its halfway point. `CCCCC[C@H](O)/C=C/[C@H]1CCC(=O)N1CCCCCCC(=O)O` [8-aza-11-deoxy-PGE1]: the EC50 at Rat EP4 Receptor [3] was found to be 2.64 ± 0.62 nM; on hEP4 receptor [5] (setting [7]), 1.77 ± 0.32 nM. The molecule also had a Ki at hEP4 receptor [4] of 1.7 nM.

For the molecule `CCCCC[C@H](O)/C=C/[C@H]1CCC(=O)[C@@H]1CCCCCCC(=O)O` [11-deoxy-PGE1], the Ki at rEP4 receptor (setting [8]) stood at 0.21 nM; at hEP4 receptor [4] it was 0.13 nM. Besides, the EC50 on Rat EP4 Receptor [3] is 1.13 ± 0.15 nM; at hEP4 receptor [5] (setting [7]), 0.79 ± 0.19 nM.

Take `CCCCC[C@H](O)/C=C/[C@H]1CCC(=O)[C@@H]1C/C=C\CCCC(=O)O` [11-deoxy-PGE2]: the Ki at rEP4 receptor (setting [8]) came to 0.42 nM; at hEP4 receptor [4] it was 0.23 nM. Also, the results for the EC50 on Rat EP4 Receptor [3] and on hEP4 receptor [5] (setting [7]) were 1.32 ± 0.24 nM and 0.66 ± 0.11 nM, respectively.

`Cc1cc(Cl)ccc1-c1ccc([C@H](O)/C=C/[C@H]2CCC(=O)N2CCCCCCC(=O)O)cc1` [CAY10684]: the results for the Ki on rEP4 receptor (setting [8]) and on hEP4 receptor [4] were 0.057 nM and 0.061 nM, respectively. The EC50 on Rat EP4 Receptor [3] was 0.16 ± 0.06 nM; on hEP4 receptor [5] (setting [7]), 0.18 ± 0.1 nM.

`CCOc1c2c(c(OCC)c3ccccc13)C(=O)N(c1ccc(CC(=O)O)cc1)C2` [CCL17464,2]: the inhibition constant Ki at hEP4 receptor [6] is 19.9 nM.

Consider `CCCCCCOc1c2c(c(OCCCCCC)c3ccccc13)C(=O)N(c1ccc(CC(=O)O)cc1)C2` [CCL17464,19], for which the Ki on hEP4 receptor [6] is above 6310 nM.

Consider `CCCCC[C@H](O)/C=C/[C@H]1[C@H](O)CC(=O)[C@@H]1CCCCCCC(=O)O` [PGE1, Prostaglandin E1], for which the affinity at hEP4 receptor [4], expressed as Ki, was 0.13 nM. Also, on hEP4 receptor [5], the EC50 worked out at 0.42 ± 0.72 nM.

`CCCCC[C@H](O)/C=C/[C@H]1[C@H](O)CC(=O)[C@@H]1C/C=C\CCCC(=O)O` [PGE2, prostaglandin E2]: the Ki at rEP4 receptor turned out to be 0.19 nM.

Consider `COCc1cccc(C[C@H](O)/C=C/[C@H]2[C@H](O)CC(=O)[C@@H]2CCSCCCC(=O)O)c1` [Rivenprost (free Acid)], for which the results for the Ki on rEP4 receptor (setting [8]) and on hEP4 receptor [4] were 0.35 nM and 0.37 nM, respectively. Moreover, the EC50 on Rat EP4 Receptor [3] was 1.16 ± 0.29 nM; on hEP4 receptor [5] (setting [7]), 0.142 nM and 0.14 nM.

In the case of `CS(=O)(=O)NC(=O)CCC/C=C\C[C@H]1C(=O)C[C@@H](O)[C@@H]1/C=C/[C@@H](O)COc1ccccc1` [Sulprostone], the values for the inhibition constant (Ki) on Rat EP4 Receptor [1] and on hEP4 receptor [2] were 43600 nM and 3310 nM, respectively.
